Results as given in patent publication US20240408099A1, “COMBINATION […] OF KRAS G12D INHIBITORS WITH Pan ErbB FAMILY INHIBITORS” (MIRATI THERAPEUTICS, INC., priority 2021, published 2024).

Experiments:
Assay type in all cases: in vivo, nude/nude mice
AsPC-1 cells = test: AsPC-1 TGI-42 pancreatic cancer xenograft, tumor volumes; conditions: 12.5 mg/kg QD
Description: (§1) Immunocompromised nude/nude mice are inoculated in the right hind flank with cells harboring a KRas G12D mutation. When tumor volumes reach between 200-400 mm^3 in size, the mice are divided into four to five groups of 5 mice each. The first group is administered vehicle only. […] The fourth or last groups are administered the single agent dose of the KRas G12D inhibitor using the twice daily schedule and/or the 2 sequential days followed by 5 days off schedule in combination with the single agent dose of one of the EGFR inhibitors. The treatment period varies from cell line to cell line but typically is between 15-40 days. Tumor volumes are measured using a caliper every two-three days and tumor volumes are calculated by the formula: […].
(§2) 20 to 30 nude/nude mice per study were inoculated in the right hind limb with 5×10^6 LS180 cells, AsPC-1 cells, GP2D cells, Panc 02.03 cells, SW1990 cells, or SNU-1033 cells.
Experimental Procedures. 30 nude/nude mice were inoculated with AsPC-1 cells in the right hind flank. When the tumors reached ˜300 mm^3 six treatment groups were established with five mice per group.

SW1990 cells = test: SW1990 TGI MDS #200407-807 pancreatic cancer xenograft, tumor volumes; conditions: for Average Tumor Volumes: 12.5 mg/kg QD once daily
Description: as §1, with “The treatment period varies from cell line to cell line but typically is between 15-40 days.” left out
as §2
Experimental Procedures. 30 nude/nude mice were inoculated with SW1990 cells in the right hind flank. When the tumors reached ˜300 mm^3 six treatment groups were established with five mice per group.

Panc 02.03 = Panc 02.03 TGI-43 pancreatic cancer xenograft (Table 5), tumor volumes; conditions: for Average Tumor Volumes: 12.5 mg/kg QD (once daily)
Description: as §1, with “The treatment period varies from cell line to cell line but typically is between 15-40 days.” left out
20 to 30 nude/nude mice per study were inoculated in the right hind limb with 5×10^6 LS180 cells, AsPC-1 cells, GP2D cells, Panc 02.03 cells, SW1990 cells, or SNU-1033 cells. […]

CN(C)C/C=C/C(=O)Nc1cc2c(Nc3ccc(F)c(Cl)c3)ncnc2cc1OC1CCOC1 (stereo not shown) [Afatinib, (E)-N-(4-((3-chloro-4-fluorophenyl)amino)-7-((tetrahydrofuran-3-yl)oxy)quinazolin-6-yl)-4-(dimethylamino)but-2-enamide, reference compound]
tumor growth inhibition (AsPC-1 cells; single agent, Day 34): 11% | Average Tumor Volumes (AsPC-1 cells; Study Day 1): 328.208 mm^3 | Average Tumor Volumes (AsPC-1 cells; Study Day 6): 463.11 mm^3 | Average Tumor Volumes (AsPC-1 cells; Study Day 9): 641.776 mm^3 | Average Tumor Volumes (AsPC-1 cells; Study Day 13): 720.894 mm^3 | Average Tumor Volumes (AsPC-1 cells; Study Day 16): 768.716 mm^3 | Average Tumor Volumes (AsPC-1 cells; Study Day 20): 964.434 mm^3 | Average Tumor Volumes (AsPC-1 cells; Study Day 23): 1002.602 mm^3 | Average Tumor Volumes (AsPC-1 cells; Study Day 27): 1211.064 mm^3 | Average Tumor Volumes (AsPC-1 cells; Study Day 30): 1289.494 mm^3 | Average Tumor Volumes (AsPC-1 cells; Study Day 34): 1252.045 mm^3 | tumor growth inhibition (SW1990 cells; 12.5 mg/kg QD daily, single agent, Day 23): 20% | Average Tumor Volumes (SW1990 cells; Study Day 2): 455.54 mm^3 | Average Tumor Volumes (SW1990 cells; Study Day 6): 536.86 mm^3 | Average Tumor Volumes (SW1990 cells; Study Day 9): 624.98 mm^3 | Average Tumor Volumes (SW1990 cells; Study Day 13): 698.56 mm^3 | Average Tumor Volumes (SW1990 cells; Study Day 16): 778.74 mm^3 | Average Tumor Volumes (SW1990 cells; Study Day 20): 1141.575 mm^3 | Average Tumor Volumes (SW1990 cells; Study Day 23): 1293.5 mm^3 | Average Tumor Volumes (SW1990 cells; Study Day −1): 363.4 mm^3 | Average Tumor Volumes (Panc 02.03; Study Day 1): 331.548 mm^3 | Average Tumor Volumes (Panc 02.03; Study Day 4): 361.83 mm^3 | Average Tumor Volumes (Panc 02.03; Study Day 8): 398.444 mm^3 | Average Tumor Volumes (Panc 02.03; Study Day 11): 470.498 mm^3 | Average Tumor Volumes (Panc 02.03; Study Day 15): 660.352 mm^3 | Average Tumor Volumes (Panc 02.03; Study Day 18): 784.04 mm^3 | Average Tumor Volumes (Panc 02.03; Study Day 22): 904.724 mm^3 | tumor growth inhibition (Panc 02.03; 12.5 mg/kg daily, single agent, Day 22): 27%
